Measurements published in patent US9957271B2, “Substituted bicyclic aza-heterocycles and analogues as sirtuin modulators” (GlaxoSmithKline, LLC, priority 2012, dated 2018).

What was measured:
SIRT1 [1] = target: T1, SIRT1 (Homo sapiens, UniProt Q96EB6); assay: TAMRA based mass spectrometry assay of SIRT1 activity; assay type: biochemical; conditions: for Emax: read-out: TAMRA % Fold Act
T1 sequence (Q96EB6 1-747): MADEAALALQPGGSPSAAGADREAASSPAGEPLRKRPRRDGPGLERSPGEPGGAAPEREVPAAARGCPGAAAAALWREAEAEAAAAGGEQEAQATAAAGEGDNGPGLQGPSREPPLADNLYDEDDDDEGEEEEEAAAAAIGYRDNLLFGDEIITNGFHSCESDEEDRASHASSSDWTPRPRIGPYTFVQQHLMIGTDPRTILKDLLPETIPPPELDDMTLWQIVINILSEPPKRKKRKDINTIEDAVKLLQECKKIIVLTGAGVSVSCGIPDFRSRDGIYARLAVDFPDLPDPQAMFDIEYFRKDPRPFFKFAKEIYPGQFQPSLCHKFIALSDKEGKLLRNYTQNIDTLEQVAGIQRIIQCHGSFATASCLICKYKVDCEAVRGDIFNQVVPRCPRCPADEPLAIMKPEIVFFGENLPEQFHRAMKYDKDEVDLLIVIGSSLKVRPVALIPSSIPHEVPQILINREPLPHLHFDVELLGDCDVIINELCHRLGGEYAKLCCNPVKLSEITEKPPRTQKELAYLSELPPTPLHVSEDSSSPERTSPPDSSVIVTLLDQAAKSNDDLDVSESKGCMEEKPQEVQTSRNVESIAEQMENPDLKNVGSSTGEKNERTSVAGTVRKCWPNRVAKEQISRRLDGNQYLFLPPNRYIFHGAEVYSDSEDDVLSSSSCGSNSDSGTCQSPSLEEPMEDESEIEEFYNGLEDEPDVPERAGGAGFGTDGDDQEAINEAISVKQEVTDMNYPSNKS
Summary of the method: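 Deacetylation of a biotinylated, TAMRA-tagged p53-based peptide (0.5 μM) by 10 nM His-tagged SIRT1 with 120 μM βNAD+, 25 °C for 25 min, pH 8 Tris-acetate buffer, across a compound concentration range. Quenched by formic acid and read by mass spec as product peptide or OAADPR; activity relative to DMSO reactions, nicotinamide defining maximal inhibition.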

SIRT1 [2] = target: T1, SIRT1; assay: Trp mass spectrometry assay of SIRT1 activity; assay type: biochemical; conditions: for Emax: read-out: Trp % Fold Act
Summary of the method: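 Activation readout: EC1.5 (concentration raising activity 50% over control) and percent maximum activation, from mass-spec quantitation of OAADPR or deacetylated Trp peptide. Reaction: 0.5 μM acetylated Trp peptide, 120 μM βNAD+, 10 nM bacterially expressed N-His SIRT1, pH 7.5 HEPES buffer with […], 25 min at 25° C.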

[3] = TAMRA peptide substrate, concentration giving 150% activation of SIRT1
[4] = TAMRA peptide substrate, percent maximum fold activation
[5] = Trp peptide substrate, concentration giving 150% activation of SIRT1
[6] = Trp peptide substrate, percent maximum fold activation
[7] = TAMRA assay, concentration giving 150% activation of SIRT1
[8] = TAMRA assay, percent maximum fold activation
[9] = Trp assay, concentration giving 150% activation of SIRT1
[10] = Trp assay, percent maximum fold activation
[11] = concentration of test compound giving 150% activation of SIRT1, TAMRA peptide substrate
[12] = percent maximum fold activation of SIRT1, TAMRA peptide substrate
[13] = concentration of test compound giving 150% activation of SIRT1, Trp peptide substrate
[14] = percent maximum fold activation of SIRT1, Trp peptide substrate

TAMRA EC1.5 (μM) (SIRT1 [1]; [7])	Emax (SIRT1 [1]; [8])	Trp EC1.5 (μM) (SIRT1 [2]; [9])	Emax (SIRT1 [2]; [10])	Compound	other results
B (EC1.5 1-25 μM)	≥ 350%	B (EC1.5 1-25 μM)	< 350%	Cc1cc(C)nc(NC(=O)c2cnn3ccc(-c4ccccc4OC(F)(F)F)nc23)n1 [Compound 688]	
B (EC1.5 1-25 μM)	≥ 350%	B (EC1.5 1-25 μM)	< 350%	Cc1cnc(NC(=O)c2cnn3ccc(-c4ccccc4OC(F)(F)F)nc23)s1 [Compound 603]	
A (EC1.5<1 μM)	≥ 350%	A (EC1.5<1 μM)	≥ 350%	CCOc1nccc(NC(=O)c2cnc3ccc(-c4ccccc4C(F)(F)F)nn23)n1 [Compound 600]	
C (EC1.5>25 μM)	< 350%	B (EC1.5 1-25 μM)	≥ 350%	Cc1cccnc1NC(=O)c1cnn2ccc(-c3ccccc3C(F)(F)F)nc12 [Compound 653]	
A (EC1.5<1 μM)	≥ 350%	B (EC1.5 1-25 μM)	< 350%	O=C(Nc1cnn2ccc(-c3ccccc3C(F)(F)F)nc12)c1cccc(-n2cnnc2)n1 [Compound 748]	
A (EC1.5<1 μM)	≥ 350%	C (EC1.5>25 μM)	< 350%	Cc1cc(C)nc(C(=O)Nc2cnn3ccc(-c4ccccc4OC(F)(F)F)nc23)n1 [Compound 736]	
A (EC1.5<1 μM)	≥ 350%	A (EC1.5<1 μM)	≥ 350%	O=C(Nc1cnc2ccc(-c3ccccc3C(F)(F)F)nn12)c1cncc(OC[C@@H](O)CO)n1 [Compound 645]	
B (EC1.5 1-25 μM)	≥ 350%	B (EC1.5 1-25 μM)	< 350%	O=C(Nc1ncc(F)cc1F)c1cnn2ccc(-c3ccccc3C(F)(F)F)nc12 [Compound 656]	

The remaining lines, values behind:

Compound	TAMRA EC1.5 (μM) (SIRT1 [1]; [7])	Emax (SIRT1 [1]; [8])	Trp EC1.5 (μM) (SIRT1 [2]; [9])	Emax (SIRT1 [2]; [10])	other results
Cc1cc(-c2ccccc2C(F)(F)F)nn2c(C(=O)Nc3cccnn3)cnc12 [Compound 514]					TAMRA EC1.5 (SIRT1 [1]; [3]): A (EC1.5<1 μM); Emax (SIRT1 [1]; [4]): ≥ 350%; Trp EC1.5 (SIRT1 [2]; [5]): A (EC1.5<1 μM); Emax (SIRT1 [2]; [6]): ≥ 350%
Cc1nc(C(=O)Nc2cnc3c(C)cc(-c4ccccc4C(F)(F)F)nn23)cs1 [Compound 412]					TAMRA EC1.5 (SIRT1 [1]; [3]): A (EC1.5<1 μM); Emax (SIRT1 [1]; [4]): ≥ 350%; Trp EC1.5 (SIRT1 [2]; [5]): A (EC1.5<1 μM); Emax (SIRT1 [2]; [6]): ≥ 350%
O=C(Nc1ccnc(OCC(F)(F)F)c1)c1cnc2ccc(-c3ccccc3C(F)(F)F)nn12 [Compound 296]	B (EC1.5 1-25 μM)	< 350%	B (EC1.5 1-25 μM)	< 350%	
O=C(Nc1cccc(CN2CCOCC2)n1)c1cnc2ccc(-c3ccccc3C(F)F)nn12 [Compound 34]					TAMRA EC1.5 (μM) (SIRT1 [1]; [11]): A (EC1.5<1 μM); Emax (SIRT1 [1]; [12]): ≥ 350%; Trp EC1.5 (μM) (SIRT1 [2]; [13]): B (EC1.5 1-25 μM); Emax (SIRT1 [2]; [14]): < 350%
Cn1ccc(NC(=O)c2cnc3ccc(-c4ccccc4C(F)(F)F)nn23)n1 [Compound 112]					TAMRA EC1.5 (μM) (SIRT1 [1]; [11]): B (EC1.5 1-25 μM); Emax (SIRT1 [1]; [12]): ≥ 350%; Trp EC1.5 (μM) (SIRT1 [2]; [13]): B (EC1.5 1-25 μM); Emax (SIRT1 [2]; [14]): < 350%
O=C(Nc1cncc(F)c1)c1cnc2ccc(-c3ccccc3C(F)(F)F)nn12 [Compound 107]					TAMRA EC1.5 (μM) (SIRT1 [1]; [11]): B (EC1.5 1-25 μM); Emax (SIRT1 [1]; [12]): ≥ 350%; Trp EC1.5 (μM) (SIRT1 [2]; [13]): B (EC1.5 1-25 μM); Emax (SIRT1 [2]; [14]): < 350%
CCNc1cccc(NC(=O)c2cnc3ccc(-c4ccccc4F)nn23)n1 [Compound 327]	A (EC1.5<1 μM)	≥ 350%	A (EC1.5<1 μM)	< 350%	
Cc1cc(NC(=O)c2cnc3ccc(-c4ccccc4OC(F)(F)F)nn23)ccn1 [Compound 364]	A (EC1.5<1 μM)	≥ 350%	A (EC1.5<1 μM)	≥ 350%	
N#Cc1ccccc1-c1ccc2ncc(NC(=O)c3nccs3)n2n1 [Compound 335]	B (EC1.5 1-25 μM)	< 350%	B (EC1.5 1-25 μM)	< 350%	
O=C(Nc1cnn2ccc(-c3ccccc3OC(F)(F)F)nc12)c1ccncc1 [Compound 583]					TAMRA EC1.5 (SIRT1 [1]; [3]): B (EC1.5 1-25 μM); Emax (SIRT1 [1]; [4]): < 350%; Trp EC1.5 (SIRT1 [2]; [5]): C (EC1.5>25 μM); Emax (SIRT1 [2]; [6]): < 350%
O=C(Nc1ccccn1)c1cnc2ccc(-c3ccccc3OC(F)(F)F)nn12 [Compound 14]					TAMRA EC1.5 (μM) (SIRT1 [1]; [11]): A (EC1.5<1 μM); Emax (SIRT1 [1]; [12]): ≥ 350%; Trp EC1.5 (μM) (SIRT1 [2]; [13]): B (EC1.5 1-25 μM); Emax (SIRT1 [2]; [14]): ≥ 350%
O=C(Nc1ccccn1)c1cnc2ccc(-c3cccc(OC(F)(F)F)c3)nn12 [Compound 8]					TAMRA EC1.5 (μM) (SIRT1 [1]; [11]): B (EC1.5 1-25 μM); Emax (SIRT1 [1]; [12]): < 350%; Trp EC1.5 (μM) (SIRT1 [2]; [13]): B (EC1.5 1-25 μM); Emax (SIRT1 [2]; [14]): < 350%
Cc1nn2ccc(-c3ccccc3C(F)(F)F)nc2c1C(=O)Nc1cccc(N2CCOCC2)n1 [Compound 552]					TAMRA EC1.5 (SIRT1 [1]; [3]): A (EC1.5<1 μM); Emax (SIRT1 [1]; [4]): ≥ 350%; Trp EC1.5 (SIRT1 [2]; [5]): A (EC1.5<1 μM); Emax (SIRT1 [2]; [6]): ≥ 350%
Cc1nc2ccc(-c3cccc(OC[C@H](O)CO)c3)nn2c1C(=O)Nc1ccncn1 [Compound 594]					TAMRA EC1.5 (SIRT1 [1]; [3]): B (EC1.5 1-25 μM); Emax (SIRT1 [1]; [4]): < 350%; Trp EC1.5 (SIRT1 [2]; [5]): B (EC1.5 1-25 μM); Emax (SIRT1 [2]; [6]): < 350%
O=C(Nc1ccccn1)c1cnc2ccc(-c3cccc(F)c3Cl)nn12 [Compound 182]					TAMRA EC1.5 (μM) (SIRT1 [1]; [11]): B (EC1.5 1-25 μM); Emax (SIRT1 [1]; [12]): < 350%; Trp EC1.5 (μM) (SIRT1 [2]; [13]): B (EC1.5 1-25 μM); Emax (SIRT1 [2]; [14]): < 350%
O=C(Nc1cccc(CN2CCOCC2)n1)c1cnc2ccc(-c3ccccc3Cl)nn12 [Compound 116]					TAMRA EC1.5 (μM) (SIRT1 [1]; [11]): A (EC1.5<1 μM); Emax (SIRT1 [1]; [12]): ≥ 350%; Trp EC1.5 (μM) (SIRT1 [2]; [13]): C (EC1.5>25 μM); Emax (SIRT1 [2]; [14]): < 350%
Cc1cc(NC(=O)c2cnc3ccc(-c4ccccc4F)nn23)cc(C)n1 [Compound 257]	A (EC1.5<1 μM)	< 350%	B (EC1.5 1-25 μM)	< 350%	
Cc1nn2ccc(-c3ccccc3C(F)(F)F)nc2c1C(=O)Nc1cccc(O)n1 [Compound 577]					TAMRA EC1.5 (SIRT1 [1]; [3]): B (EC1.5 1-25 μM); Emax (SIRT1 [1]; [4]): < 350%; Trp EC1.5 (SIRT1 [2]; [5]): A (EC1.5<1 μM); Emax (SIRT1 [2]; [6]): < 350%
O=C(Nc1cccc(CN2CCOCC2)n1)c1cnc2ccc(-c3ccc(F)cc3F)nn12 [Compound 41]					TAMRA EC1.5 (μM) (SIRT1 [1]; [11]): B (EC1.5 1-25 μM); Emax (SIRT1 [1]; [12]): < 350%; Trp EC1.5 (μM) (SIRT1 [2]; [13]): C (EC1.5>25 μM); Emax (SIRT1 [2]; [14]): < 350%
Cc1nc(C(=O)Nc2cnc3cc(C)c(-c4ccccc4C(F)(F)F)nn23)cs1 [Compound 433]					TAMRA EC1.5 (SIRT1 [1]; [3]): A (EC1.5<1 μM); Emax (SIRT1 [1]; [4]): ≥ 350%; Trp EC1.5 (SIRT1 [2]; [5]): C (EC1.5>25 μM); Emax (SIRT1 [2]; [6]): < 350%
Cc1nc2c(C)cc(-c3ccccc3OC(F)(F)F)nn2c1C(=O)Nc1ccncn1 [Compound 478]					TAMRA EC1.5 (SIRT1 [1]; [3]): A (EC1.5<1 μM); Emax (SIRT1 [1]; [4]): ≥ 350%; Trp EC1.5 (SIRT1 [2]; [5]): A (EC1.5<1 μM); Emax (SIRT1 [2]; [6]): ≥ 350%
Cc1nc2ccc(-c3ccccc3C(F)(F)F)nn2c1NC(=O)c1cccc(N2CCC2)n1 [Compound 383]	A (EC1.5<1 μM)	≥ 350%	B (EC1.5 1-25 μM)	≥ 350%	
CCNc1cccc(NC(=O)c2cnc3ccc(-c4ccccc4Cl)nn23)n1 [Compound 326]	A (EC1.5<1 μM)	≥ 350%	A (EC1.5<1 μM)	< 350%	
O=C(Nc1cnc2ccc(-c3ccccc3Cl)nn12)c1cccc(N2CCC2)n1 [Compound 308]	A (EC1.5<1 μM)	≥ 350%	A (EC1.5<1 μM)	< 350%	
